One data set relates to S. aureus NCTC 8325. It is filed as cell-based.
In data set [1] the test system is Staphylococcus aureus VA417350. Kind of data set: Minimal inhibitory concentration (MIC) assay. The format is cell-based. To be noted: Staphylococcus aureus VA417350 (clinical isolate); B medium.
For another data set, the system named is Acinetobacter baumannii. Kind of data set: Minimal inhibitory concentration (MIC) assay. The format is cell-based. The following applies: B medium.
The test system of data set [2] is Staphylococcus aureus DSM18827. Kind of data set: Minimal inhibitory concentration (MIC) assay. The format is cell-based. To be noted: B medium.
For data set [3], the target named is T1, Signal peptidase IB enzyme (SpsB) (Staphylococcus aureus, UniProt P0A070).
T1 sequence (P0A070 1-191): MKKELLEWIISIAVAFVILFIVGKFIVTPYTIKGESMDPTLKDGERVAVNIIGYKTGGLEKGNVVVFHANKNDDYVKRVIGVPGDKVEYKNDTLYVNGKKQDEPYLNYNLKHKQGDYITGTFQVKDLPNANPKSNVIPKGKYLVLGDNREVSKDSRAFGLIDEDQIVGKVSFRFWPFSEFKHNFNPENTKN
The data set is described as follows: SpsB FRET peptidase assay with membrane fraction. To be noted: for activity of SpsB: 100 μM compound, SpsB-containing membrane fraction of S. aureus, DMSO treated control 1.8 A·U/s; for SpsB peptidase activity (in words): FRET assay, 100 μM, compared to DMSO treated control.

In the next data set the test system is Bacillus subtilis. The data set is described as follows: Minimal inhibitory concentration (MIC) assay. To be noted: LB medium. It is filed as cell-based.
Another data set has as its system MRSA ATCC 33591. The data set is described as follows: Neutropenic murine thigh model. To be noted: 20 mg/kg orally 30 min, 4 and 8 h after inoculation; vs sham-treated mice. The format is in vivo, S. aureus. The procedure: PK/X17-1-150 (20 mg/kg) and the corresponding vehicle were administered orally after 30 min, 4 and 8 h after bacterial inoculation, whereas levofloxacin (5 mg/kg) and the corresponding vehicle were administered intraperitoneally after 2, 6 and 10 h after bacterial inoculation. N=6 for vehicle i.p., levofloxacin i.p. and for PK/X17-1-150; n=5 for vehicle p.o. Data are expressed as mean values±SD. **, p<0.01; ***, p<0.001.

Data set [4] concerns A549, HeLa, HepG2 and NIH/3T3 cells. The data set is described as follows: Cytotoxicity assay (MTT). The following applies: 24 h incubation, various cell lines. The format is cell-based, human. The protocol: The MTT assay was performed in 96 well plates. A549, HeLa and HepG2 cells were seeded with 4000 cells/well, whereas NIH/3T3 cells were seeded with 2000 cells/well. Cells were grown to 30-40% confluence at 37° C. and 5% CO2 over a time span of 24 h. The medium was removed and 100 μL medium/well containing varying concentrations of the respective compound and a final DMSO concentration of 0.1% were added to the cells in triplicates and incubated at 37° C. and 5% CO2 for 24 h. 20 μL Thiazolyl blue tetrazolium bromide (5 mg/mL in PBS, Sigma Aldrich) were added to the cells and incubated at 37° C. and 5% CO2 for 4 h until complete consumption was observed. After removal of the medium, the resulting formazan was dissolved in 200 μL DMSO. Optical density was measured at 570 nm (562 nm) and background subtracted at 630 nm (620 nm) by a TECAN Infinite M200 Pro.

Data set [5] relates to Staphylococcus aureus Bk95395. The data set is described as follows: Minimal inhibitory concentration (MIC) assay. To be noted: Staphylococcus aureus Bk95395 (clinical isolate); B medium. The format is cell-based.
In the next data set the test system is S. aureus. The data set is described as follows: Murine bloodstream infection model. It is filed as in vivo. The following applies: S. aureus-infected mice, 20 mg/kg, compared to vehicle control. The protocol: Bacterial loads in the heart (left) and liver (right) of S. aureus-infected mice treated with 20 mg/kg of PK/[…]-1-150 (squares) or vehicle alone (circles). Each symbol represents an individual mouse. Compilation data from three independent experiments are presented. N=14 for vehicle and PK/[…]-1-150. Horizontal lines represent the mean values. **, p<0.01.

The test system of data set [6] is S. aureus DSM 4910 (NCTC 8325) biofilm. Kind of data set: Minimum biofilm eradication concentration (MBEC) assay. It is filed as cell-based. The procedure:
To each well of a flat-bottomed 96-well plate (BD Biosciences, BD 351172) 200 μL of overnight culture of bacteria diluted 1:100 in media is added. Plates are incubated for 24 hours at 37° C. to establish biofilms. After 24 hours, the wells are carefully emptied by inverting the plate and gently shaking. A pre-mixed solution of media and compound stock solution is added to each well and plates are incubated at 37° C. […] 100 μL of supernatant from each well are transferred to a fresh 96-well flat bottomed plate and the OD at 595 nm is measured using a plate reader (POLARstar Omega, BMG Labtech). Concentrations of compound yielding a regrown OD of less than 0.1 correspond to the MBEC. Six replicates are completed for each concentration of compound as well as positive and negative controls. […] DMSO was used as negative control compound, Oxacillin was used as positive control compound. Levels of crystal violet retained were measured spectrophotometrically at an OD of 595 nm. Concentrations of compound yielding a regrown OD of less than 0.1 correspond to the MBEC. Six replicates are completed for each concentration of compound as well as controls. […] Levels of crystal violet retained were measured spectrophotometrically at an OD of 595 nm. […]

The subject of data set [7] is Staphylococcus aureus VA418879. The data set is described as follows: Minimal inhibitory concentration (MIC) assay. It is filed as cell-based. The following applies: Staphylococcus aureus VA418879 (clinical isolate); B medium.

This note sets out measurements from patent US12187696B2, “Urea motif containing compounds and derivatives thereof as antibacterial drugs” (Technische Universität München, priority 2016, dated 2025).

≈ marks a conversion by molar mass, not a printed value. Entries after “also recorded” stand apart in the source; their conditions may differ.

In general, MIC refers to the smallest concentration in the dilution series that meets the test's criterion for growth inhibition. Higher therefore signals a less susceptible organism. On to `O=C(Nc1ccc2c(c1)OC(F)(F)O2)Nc1ccc(Cl)c(C(F)(F)F)c1` [Example 4, 1-(4-Chloro-3-(trifluoromethyl)phenyl)-3-(2,2-difluorobenzo[d][1,3]dioxol-5-yl)urea], for which the “resistance development on serial passaging” value in the data set with S. aureus NCTC 8325 (S. aureus NCTC 8325, subinhibitory levels, 27 days, listed as PK/X17-1-150) is “did not induce resistance; also recorded: no resistant development”. In addition, the “activity against S. aureus that developed resistance against sorafenib” value in the data set on S. aureus NCTC 8325 (preliminary results) is listed as “still active”. Moreover, the MIC was 0.3 µM (≈ 0.118 µg/mL) in data set [1]; 10 µM (≈ 3.95 µg/mL) against Acinetobacter baumannii; 0.3 µM (≈ 0.118 µg/mL) in data set [2]; 1 µM (≈ 0.395 µg/mL) with Bacillus subtilis; 0.3 µM (≈ 0.118 µg/mL) in data set [5]; 0.3 µM (≈ 0.118 µg/mL) in [7]. For the same compound, the “activity of SpsB” value in [3] is listed as 4.3 A·U/s. Further, the “SpsB peptidase activity (in words)” value in data set [3] (listed as PK/X17-1-150) is reported as “increased SpsB peptidase activity; also recorded: stimulates peptidase activity”. Besides, in the data set on MRSA ATCC 33591, the “thigh bacterial load reduction” value is 1 log10 cfu/g thigh. Moreover, in data set [4], the “cytotoxicity (MTT)” value is “at concentrations higher compared to the antibacterial MICs”. Moreover, the “reduction of bacterial load in heart” value in the data set on S. aureus came out at 2 log cfu. In the data set with S. aureus, the “reduction of bacterial load in liver” value stood at 2 log cfu. The biofilm eradication effect result in [6] (S. aureus DSM 4910, after 20 h of compound treatment) is recorded as “strongest effect”; in data set [6] (S. aureus DSM 4910, after 70 h of compound treatment), “most potent effects”.
For `CNC(=O)c1cc(Oc2ccc(NC(=O)Nc3ccc(Cl)c(C(F)(F)F)c3)cc2)ccn1` [Sorafenib, reference compound], the “first signs of lower sensitivity” value in the data set with S. aureus NCTC 8325 (serial passaging of S. aureus) was not above 5 days. Further, in the data set with S. aureus NCTC 8325 (serial passaging, within the first 10 days), the “increase of minimal inhibitory concentration (factor)” value amounted to 40. The minimal inhibitory concentration (MIC) in data set [1] was 5 µM (≈ 2.32 µg/mL); with Acinetobacter baumannii, more than 100 µM; in [2], 3 µM (≈ 1.39 µg/mL); in the data set on Bacillus subtilis, 5 µM (≈ 2.32 µg/mL); in [5], 5 µM (≈ 2.32 µg/mL); in [7], 5 µM (≈ 2.32 µg/mL). Further, in [3], the “activity of SpsB” value was 2.6 A·U/s. Moreover, the “SpsB peptidase activity (in words)” value in data set [3] was “increased SpsB peptidase activity; also recorded: stimulates peptidase activity”.
